Experimental data published in patent publication US6566375B1, “Elevation of HDL cholesterol by 4-[(aminothioxomethyl)-hydrazono]-N-(substituted)-4-arylbutanamides” (Wyeth, priority 1997, dated 2003).

How the values were obtained:
HDL cholesterol = experiment: Cholesterol fed rat, in vivo assay of serum HDL cholesterol; set-up: species or system Male Sprague-Dawley rats; conditions: test substance mixed in diet for 8 days, serum HDL cholesterol by FPLC
Procedure: The compounds are tested in vivo in rats fed cholesterol-augmented rodent chow for 8 days according to the test protocol and blood from the rats analyzed for HDL cholesterol.
In Vivo Assa.: Male Sprague-Dawley rats weighing 200-225 g are housed two per cage and fed Purina Rodent Chow Special Mix 5001-S supplemented with 0.25% cholic acid and 1.0% cholesterol and water ad libitum for 8 days. Each test substance is administered to a group of six rats fed the same diet with the test diet mixed in as 0.005-0.1% of the total diet. Body weight and food consumption are recorded prior to diet administration and at termination. Typical doses of the test substances are 5-100 mg/kg/day.
At termination, blood is collected from anesthetized rats and the serum is separated by centrifugation. Total serum cholesterol is assayed using the Sigma Diagnostics enzymatic kit for the determination of cholesterol, Procedure No. 352, modified for use with ninety-six well microtiter plates. After reconstitution with water the reagent contains 300 U/I cholesterol oxidase, 100 U/I horse radish peroxidase, 0.3 mmoles/l of 4-aminoantipyrine and 30.0 mmoles/l of p-hydroxybenzenesulfonate in a pH 6.5 buffer. In the reaction cholesterol is ;oxidized to produce hydrogen peroxide which is used to form a quinoneimine dye. The concentration of dye formed is measured spectrophotometrically by absorbance at 490 nm after incubation at 25° C. for 30 minutes. The concentration of cholesterol was determined for each serum sample relative to a commercial standard from Sigma.
HDL cholesterol concentrations in serum are determined by separation of lipoprotein classes by fast protein liquid chromatography (FPLC) by a modification of the method of Kieft et al., J. Lipid Res., 32 (1991) 859-866. 25 μl of serum is injected onto Superose 12 and Superose 6 (Pharmacia), in series, with a column buffer of 0.05 M Tris (2-amino-2-hydroxymethyl-1,3-propanediol) and 0.15 M sodium chloride at a flow rate of 0.5 ml/min. The eluted sample is mixed on line with Boehringer-Mannheim cholesterol reagent pumped at 0.2 ml/min. The combined eluents are mixed and incubated on line through a knitted coil (Applied Biosciences) maintained at a temperature of 45° C. The eluent is monitored by measuring absorbance at 490 nm and gives a continuous absorbance signal proportional to the cholesterol concentration. The relative concentration of each lipoprotein class is calculated as the per cent of total absorbance. HDL cholesterol concentration, in serum, is calculated as the per cent of total cholesterol as determined by FPLC multiplied by the total serum cholesterol concentration.

Row | SMILES | melting point | % Increase in HDL (Dose) (HDL cholesterol; 100 mg/kg) | % Increase in HDL (Dose) (HDL cholesterol; 50 mg/kg) | % Increase in HDL (Dose) (HDL cholesterol; 82 mg/kg)
1 | CNC(=O)CCC(=NNC(N)=S)c1ccccc1 [Example 5, 4-[(Aminothioxomrethyl)-hydrazono]-N-methyl-4-phenylbutanamide] | – | 43.3% | – | –
2 | CC(C)NC(=O)CCC(=NNC(N)=S)c1ccccc1 [Example 2, 4-[(Aminothioxomethyl)hydrazono]-N-(1-methylethyl)-4-phenyl-butanamide] | 66 to 71 °C | 61.7% | – | –
3 | CCCCNC(=O)CCC(=NNC(N)=S)c1ccccc1 [Example 1, 2-(4-Butylamino-4-oxo-1-phenyl-butylidene)-hydrazinothiocarboxamide] | 64 to 68 °C | 56% | – | –
4 | NC(=S)NN=C(CCC(=O)NCc1ccccc1)c1ccccc1 [Example 4, 4-[(Aminothioxomtethyl)-hydrazono]-N-benzyl-4-phenylbutanamide] | – | – | 49.5% | –

Continued, in another order:

Row | melting point | SMILES | % Increase in HDL (Dose) (HDL cholesterol; 100 mg/kg) | % Increase in HDL (Dose) (HDL cholesterol; 50 mg/kg) | % Increase in HDL (Dose) (HDL cholesterol; 82 mg/kg)
5 | 181 to 183 °C | NC(=S)NN=C(CCC(=O)N1CCCCC1)c1ccccc1 [Example 8, 1-[4-[(Aminothioxomethyl)hydrazono]-1-oxo-4-phenylbutyl]piperidine] | – | 52.8% | –
6 | 89 to 92 °C | NC(=S)NN=C(CCC(=O)NC1CCCCC1)c1ccccc1 [Example 6, 4-[(Aminothioxomethyl)-hydrazono]-N-cyclohexyl-4-phenylbutanamide] | – | – | 28.1%
7 | 173 to 175 °C | CN(C)C(=O)CCC(=NNC(N)=S)c1ccccc1 [Example 7, 4-[(Aminothioxomethyl)hydrazono]-N,N-dimethyl-4-phenylbutanamide] | – | 56.2% | –
8 | 58 to 65 °C | CC(C)CCCC(C)NC(=O)CCC(=NNC(N)=S)c1ccccc1 (stereo not shown) [Example 9, 4-[(Aminothioxomethyl)-hydrazono]-N-(1,5-dimethylhexyl)-4-phenyl-butanamide] | – | 40.4% | –
9 | 186 to 188 °C | NC(=O)CCC(=NNC(N)=S)c1ccccc1 [Example 3, 4-[(Aminothioxomethyl)-hydrazono]-4-phenylbutanamide] | – | 36.4% | –
